In patent US6358885B1, “Substituted phenylheterocyclic herbicides” (Mississippi State University, priority 1992, dated 2002):

Legend:
barnyardgrass = experiment: Test B preemergence/postemergence greenhouse plant response rating 0 to 10; type: in vivo, Echinochloa crus-galli; conditions: 0 to 10 scale
Outline: (§1)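 Test chemicals, dissolved in a non-phytotoxic solvent, were applied to soil at planting and, at the same time, over foliage of seedlings at the one to four leaf stage.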

cheatgrass = experiment: as above; type: in vivo, Bromus secalinus; conditions: 0 to 10 scale
Outline: as §1

chickweed = experiment: as above; type: in vivo, Stellaria media; conditions: 0 to 10 scale
Outline: as §1

corn = experiment: as above; type: in vivo, Zea mays; conditions: 0 to 10 scale
Outline: as §1

crabgrass = experiment: as above; type: in vivo, Digitaria spp.; conditions: 0 to 10 scale
Outline: as §1

giant foxtail = experiment: as above; type: in vivo, Setaria faberii; conditions: 0 to 10 scale
Outline: as §1

morningglory [1] = experiment: as above; type: in vivo, Ipomoea hederacea; conditions: 0 to 10 scale
Outline: as §1

rape = experiment: as above; type: in vivo, Brassica napus; conditions: 0 to 10 scale
Outline: as §1

velvetleaf = experiment: as above; type: in vivo, Abutilon theophrasti; conditions: 0 to 10 scale
Outline: as §1

barley = experiment: Test C preemergence/postemergence greenhouse plant response rating 0 to 100; type: in vivo, Hordeum vulgare; conditions: POSTEMERGENCE; for Plant response rating Barley Igri: 0 to 100 scale
Outline: (§2)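 Compounds in non-phytotoxic solvent went onto sandy loam before emergence (seeded one day earlier) or onto plants at the one-to-four leaf stage. Duck salad was treated via flood water (~2.5 cm, maintained) over silt loam.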

lambsquarters = experiment: as above; type: in vivo, Chenopodium album; conditions: POSTEMERGENCE; for Plant response rating Lambsquarters: 0 to 100 scale
Outline: as §2

morningglory [2] = experiment: as above; type: in vivo, Ipomoea hederacea; conditions: POSTEMERGENCE; for Plant response rating, Morningglory: 0 to 100 scale
Outline: as §2

soybean = experiment: as above; type: in vivo, Glycine max; conditions: POSTEMERGENCE; for Plant response rating, Soybean: 0 to 100 scale
Outline: as §2

COC(=O)c1cc(-c2nn3c(c2Cl)CCCC3)c(F)cc1Cl [Compound 43]
Plant response rating, Barnyardgrass (barnyardgrass; POSTEMERGENCE, Rate 50 g/ha): 7
Plant response rating, Barnyardgrass (barnyardgrass; POSTEMERGENCE, Rate 200 g/ha): 9
Plant response rating, Barnyardgrass (barnyardgrass; PREEMERGENCE, Rate 50 g/ha): 0
Plant response rating, Barnyardgrass (barnyardgrass; Rate 200 g/ha, PREEMERGENCE): 2
Plant response rating, Cheatgrass (cheatgrass; POSTEMERGENCE, Rate 50 g/ha): 6
Plant response rating, Cheatgrass (cheatgrass; POSTEMERGENCE, Rate 200 g/ha): 9
Plant response rating, Cheatgrass (cheatgrass; PREEMERGENCE, Rate 50 g/ha): 2
Plant response rating, Cheatgrass (cheatgrass; Rate 200 g/ha, PREEMERGENCE): 3
Plant response rating, Chickweed (chickweed; POSTEMERGENCE, Rate 200 g/ha): 10
Plant response rating, Chickweed (chickweed; PREEMERGENCE, Rate 50 g/ha): 0
Plant response rating, Chickweed (chickweed; Rate 200 g/ha, PREEMERGENCE): 10
Plant response rating, Corn (corn; POSTEMERGENCE, Rate 50 g/ha): 8
Plant response rating, Corn (corn; POSTEMERGENCE, Rate 200 g/ha): 10
Plant response rating, Corn (corn; PREEMERGENCE, Rate 50 g/ha): 0
Plant response rating, Corn (corn; Rate 200 g/ha, PREEMERGENCE): 0
Plant response rating, Crabgrass (crabgrass; POSTEMERGENCE, Rate 50 g/ha): 4
Plant response rating, Crabgrass (crabgrass; PREEMERGENCE, Rate 50 g/ha): 0
Plant response rating, Crabgrass (crabgrass; Rate 200 g/ha, PREEMERGENCE): 0
Plant response rating, Giant foxtail (giant foxtail; POSTEMERGENCE, Rate 50 g/ha): 5
Plant response rating, Giant foxtail (giant foxtail; PREEMERGENCE, Rate 50 g/ha): 0
Plant response rating, Giant foxtail (giant foxtail; Rate 200 g/ha, POSTEMERGENCE): 6
Plant response rating, Giant foxtail (giant foxtail; Rate 200 g/ha, PREEMERGENCE): 0
Plant response rating, Morningglory (morningglory [1]; POSTEMERGENCE, Rate 50 g/ha): 10
Plant response rating, Morningglory (morningglory [1]; PREEMERGENCE, Rate 50 g/ha): 0
Plant response rating, Morningglory (morningglory [1]; Rate 200 g/ha, POSTEMERGENCE): 10
Plant response rating, Morningglory (morningglory [1]; Rate 200 g/ha, PREEMERGENCE): 0
Plant response rating, Rape (rape; POSTEMERGENCE, Rate 50 g/ha): 9
Plant response rating, Rape (rape; PREEMERGENCE, Rate 50 g/ha): 0
Plant response rating, Rape (rape; Rate 200 g/ha, POSTEMERGENCE): 10
Plant response rating, Rape (rape; Rate 200 g/ha, PREEMERGENCE): 9
Plant response rating, Velvetleaf (velvetleaf; POSTEMERGENCE, Rate 50 g/ha): 10
Plant response rating, Velvetleaf (velvetleaf; PREEMERGENCE, Rate 50 g/ha): 5
Plant response rating, Velvetleaf (velvetleaf; Rate 200 g/ha, POSTEMERGENCE): 10
Plant response rating, Velvetleaf (velvetleaf; Rate 200 g/ha, PREEMERGENCE): 10
Plant response rating Barley Igri (barley; 62 g/ha): 50
Plant response rating Barley Igri (barley; 250 g/ha): 60
Plant response rating (0 to 100), Barley Igri (barley; Rate 4 g/ha): 30
Plant response rating (0 to 100), Barley Igri (barley; Rate 16 g/ha): 40
Plant response rating Lambsquarters (lambsquarters; 62 g/ha): 100
Plant response rating Lambsquarters (lambsquarters; 250 g/ha): 100
Plant response rating (0 to 100), Lambsquarters (lambsquarters; Rate 4 g/ha): 90
Plant response rating (0 to 100), Lambsquarters (lambsquarters; Rate 16 g/ha): 100
Plant response rating, Morningglory (morningglory [2]; 62 g/ha): 90
Plant response rating, Morningglory (morningglory [2]; 250 g/ha): 100
Plant response rating (0 to 100), Morningglory (morningglory [2]; Rate 4 g/ha): 40
Plant response rating (0 to 100), Morningglory (morningglory [2]; Rate 16 g/ha): 60
Plant response rating, Soybean (soybean; 62 g/ha): 70
Plant response rating, Soybean (soybean; 250 g/ha): 90
Plant response rating (0 to 100), Soybean (soybean; Rate 4 g/ha): 40
Plant response rating (0 to 100), Soybean (soybean; Rate 16 g/ha): 50
